In article PMC6062912, “The Evolutionary Conserved γ-Core Motif Influences the Anti-Candida Activity of the Penicillium chrysogenum Antifungal Protein PAF” (Frontiers in Microbiology, 2018):
Like-named read-outs stand apart in the source and are kept apart here. Residues, ends and D or L forms follow the SMILES beside them.

Key:
Type in all cases: cell-based, Candida albicans
C. albicans [1] = conditions: 2 h
Method: Fungistatic or fungicidal activities were determined by incubating C. albicans (10^4 cells mL^-1) in 0.05× PDB with proteins and peptides at 1× MIC and 2× MIC of at 30°C under continuous shaking (800 rpm) in a Thermomixer Comfort (Eppendorf). At defined time points, aliquots were taken and appropriate dilutions were plated on YPD agar in duplicates to promote growth of viable cells. Agar plates were incubated at 37°C for 24 h to count colony forming units (cfu) ([Huber et al., 2018]).
The determination of the MIC concentration is a well-established, reliable method to elucidate the growth reducing effect of an antifungal compound. […] To gain deeper insight into the antifungal mechanism of the generated protein and peptide variants, we compared them first for their fungicidal potential. In liquid culture C. albicans was exposed to 1× MIC and 2× MIC concentrations of each protein and peptide. After certain time points aliquots were taken and appropriate dilutions were spread on agar plates to allow colony formation of viable cells. The cfu were counted and compared to the untreated control, which was set to be 100%. […] The candidacidal effects were aggravated with higher protein concentrations.

C. albicans biofilms = assay: Anti-biofilm activity, FDA fluorescence; conditions: AMP 0–40 μM for 24 h at 30°C; for concentration inhibiting cell metabolism in biofilm (FDA fluorescence): 24-h-old biofilms; for concentration with anti-biofilm (inhibitory) activity, extinction of FDA fluorescence: 1 h old (young) biofilms
Method: The antifungal activity against C. albicans biofilms was determined in 96-well microtiter plates (Nunclon Delta, Thermo Fisher Scientific). Cells (10^5) in 100 μL 0.05× PDB were distributed per well and plates were incubated at 37°C for up to 24 h to allow biofilm formation. After cell adherence, the microtiter plates were washed once with 0.05× PDB and the test substances were added in increasing concentrations in 100 μL 0.05× PDB per well. H2O2 served as a control for cell killing. The plates were further incubated at 30°C for 24 h. The wells were washed once with 0.05× PDB and 100 μL of FDA solution (40 μg mL^-1 in 0.05× PDB) was added to the wells. Wells containing only FDA solution (40 μg mL^-1 in 0.05× PDB) were used as blank background control. The plates were incubated for 1 h at 37°C in the dark before the fluorescence signal intensity was measured in a multi-mode microplate reader (FLUOstar Omega, BMG Labtech) with excitation and emission wavelengths of 485 and 520 nm. All experiments were prepared at least in duplicates and repeated at least twice.
Next, we analyzed the potential of the AMPs to inhibit C. albicans biofilm formation. Low susceptibility of biofilms to antifungal agents is often a limiting factor in anti-Candida treatment. To this end, C. albicans cells were distributed in 96-well microtiter plates, allowed to settle down, and to develop biofilms for 1 and 24 h. Then, planktonic cells were washed off and AMPs were added to the biofilms for another 24 h in a concentration range of 0–40 μM. The biofilms were then quantified by adding FDA to the wells. Metabolically active cells convert non-fluorescent FDA into highly fluorescent fluorescein by intracellular enzymatic activity ([Peeters et al., 2008]). The resulting fluorescence signal intensity from AMP-treated biofilms was measured and compared to untreated conditions. […] Twenty-four-hour-old biofilms, however, were resistant against PAF, PAF^var, and PAF^opt in the investigated concentration range (data not shown).

C. albicans [2] = conditions: 10 min exposure, mean ± SD, untreated control 1.8 ± 1.2%
Method: (§1) To analyze changes in cell size and to assess kinetics of cell death of C. albicans upon antifungal treatment flow cytometry was applied. For both experiments, 10^4 cells mL^-1 was incubated in 0.05× PDB with the desired AMP concentration for different time points. The incubation was performed in 1.5 mL reaction tubes at 30°C under continuous shaking at 800 rpm in a Thermomixer Comfort (Eppendorf). After incubation, the cells were centrifuged at 4°C with 3,000 ×g for 3 min. For cell size determination, the supernatant was removed and the cells were resuspended and fixed in PBS containing 3.7% (v/v) formaldehyde before changes in cell size were measured by plotting SSC against FSC. C. albicans that were incubated at 95°C for 120 min served as controls. Microscopic control-images were taken with a fluorescence microscope (Axioplan, Zeiss), equipped with a camera (Axiocam 503 mono, Zeiss) and excitation/emission filters (365/420 nm for blue fluorescence and 546/590 or 565/620 nm for red fluorescence, Zeiss). Image acquisition was performed with ZEN 2 microscope software (Zeiss, blue edition) and the cell area was measured with ImageJ 1.52d software ([Schindelin et al., 2012]).
For dead-cell staining, prior to fixation, the cells were incubated in the dark for 30 min at 4°C with 100 μL PBS containing 0.1 μL LIVE/DEAD^TM Fixable Far Red Dead Cell Stain (Thermo Fisher Scientific). The cells were then washed once in PBS and fixed in PBS containing 3.7% formaldehyde. Ethanol-inactivated dead C. albicans served as a positive staining control. The samples were then analyzed by FACS (FACSVerse Flow Cytometer, BD Biosciences), equipped with BD FACSuite software (v1.0.6.5230, BD Biosciences). Dead cells were detected at Excitation/Emission wavelength of 650/665 nm. Stained, live, and dead Candida cells were used as controls to discriminate populations and to set the gates.
To elucidate the AMPs candidacidal activities at an early stage and to compare their time and dose-dependent cell killing in more detail, fluorescence activated cell sorting (FACS) analysis with dead-cell staining was applied. To this end, C. albicans was exposed to 1× and 2× MIC of the respective AMPs for 10 min, stained with the dead-cell marker, and fixed with formaldehyde. With FACS analyses, 1.8 ± 1.2% dead cells were detected in the untreated control (Figure 3).

C. albicans [3] = assay: Cell size reduction (FSC) by flow cytometry; conditions: 2× MIC, mean ± SD
Method: as §1
Cell shrinkage of C. albicans is a sign for cell death when exposed to AMPs ([Lee et al., 2017]). We therefore analyzed the changes in size of AMP-treated C. albicans cells by recording the FSC with flow cytometry. To this end, C. albicans cells were analyzed after 10 and 30 min of exposure to 1× MIC and 2× MIC of AMPs (Figure 5). Heat-killed and untreated C. albicans cells served as positive and negative controls, respectively (Supplementary Figure S8). […] Pγ^var and Pγ^opt caused a very prominent decrease in the FSC value compared to the untreated cell population when applied at 2× MIC. Pγ^var and Pγ^opt reduced the average cell size after a 10-min treatment by 28 ± 13 (P = 0.022) and 18 ± 10% (P = 0.041), respectively, and after 30 min the cell size was reduced by 48 ± 8 (P < 0.001) and 37 ± 12% (P = 0.007), respectively.

SMILES	Candida cells killed (cfu vs untreated control) (C. albicans [1]; 1)	Candida cells killed (cfu vs untreated control) (C. albicans [1]; 2)	concentration inhibiting cell metabolism in biofilm (FDA fluorescence) (C. albicans biofilms)	concentration with anti-biofilm (inhibitory) activity, extinction of FDA fluorescence (C. albicans biofilms)	dead cells (cells killed), FACS dead-cell staining (C. albicans [2]; 1× MIC)	dead cells (cells killed), FACS dead-cell staining (C. albicans [2]; 2× MIC)	cell size reduction (change in FSC vs untreated cells) (C. albicans [3]; 10 min)	cell size reduction (change in FSC vs untreated cells) (C. albicans [3]; 30 min)	Candida cells killed (cfu vs untreated control) (C. albicans [1]; 1× MIC, 0.05× PDB, 30°C, mean ± SD)
CC(=O)N[C@@H](CCCCN)C(=O)N[C@@H](Cc1ccc(O)cc1)C(=O)N[C@H](C(=O)NCC(=O)N[C@@H](CCCCN)C(=O)N[C@@H](CS)C(=O)N[C@@H](CCCCN)C(=O)N[C@H](C(=O)N[C@@H](CCCCN)C(=O)N[C@@H](CCCCN)C(=O)N[C@@H](CC(N)=O)C(=O)N[C@@H](CCCCN)C(=O)N[C@@H](CS)C(=O)N[C@@H](CCCCN)C(N)=O)[C@@H](C)O)[C@@H](C)O [Pγ^opt] (Ac-KYTGKCKTKKNKCK-NH2)	29 ± 10%	88 ± 8%	10 µM	10 µM	11.7 ± 0.3%	27.4 ± 1.3%	18 ± 10%	37 ± 12%	
CC(=O)N[C@@H](CCCCN)C(=O)N[C@@H](Cc1ccc(O)cc1)C(=O)N[C@H](C(=O)NCC(=O)N[C@@H](CCCCN)C(=O)N[C@@H](CS)C(=O)N[C@@H](Cc1ccc(O)cc1)C(=O)N[C@@H](CCCCN)C(=O)N[C@@H](CCCCN)C(=O)N[C@@H](CCCCN)C(=O)N[C@@H](CC(N)=O)C(=O)N[C@@H](CCC(=O)O)C(=O)N[C@@H](CS)C(=O)N[C@@H](CCCCN)C(N)=O)[C@@H](C)O [Pγ^var] (Ac-KYTGKCYKKKNECK-NH2)		50 ± 28%	20 µM	10 µM	13.2 ± 3.2%	27.1 ± 5.6%	28 ± 13%	48 ± 8%	no killing effects
